Results as given in article PMC5519620 (Frontiers in Cellular Neuroscience, 2017).
“Also recorded” adds a separate entry of the source.

What was measured:
α9* nAChRs of monocytes = details: ref Hecker et al., 2015; Richter et al., 2016; Backhaus et al., 2017; cited from earlier work
mouse α9α10 nAChR = mouse α9α10 nAChR (Mus musculus, UniProt B2RX82+G3X8Z7); experiment: Agonist activation of mouse α9α10 nAChRs in Xenopus oocytes (two-electrode voltage clamp); format: biochemical; details: for agonist behaviour (words): oocyte two-electrode voltage clamp, nicotine 100 nM to 10 mM; for Hill slope for activation / EC50: 95% confidence interval in parentheses, ACh n = 5, choline n = 4; for EC50: oocytes, holding potential −70 mV
Sequence of mouse α9α10 nAChR (G3X8Z7 23-479): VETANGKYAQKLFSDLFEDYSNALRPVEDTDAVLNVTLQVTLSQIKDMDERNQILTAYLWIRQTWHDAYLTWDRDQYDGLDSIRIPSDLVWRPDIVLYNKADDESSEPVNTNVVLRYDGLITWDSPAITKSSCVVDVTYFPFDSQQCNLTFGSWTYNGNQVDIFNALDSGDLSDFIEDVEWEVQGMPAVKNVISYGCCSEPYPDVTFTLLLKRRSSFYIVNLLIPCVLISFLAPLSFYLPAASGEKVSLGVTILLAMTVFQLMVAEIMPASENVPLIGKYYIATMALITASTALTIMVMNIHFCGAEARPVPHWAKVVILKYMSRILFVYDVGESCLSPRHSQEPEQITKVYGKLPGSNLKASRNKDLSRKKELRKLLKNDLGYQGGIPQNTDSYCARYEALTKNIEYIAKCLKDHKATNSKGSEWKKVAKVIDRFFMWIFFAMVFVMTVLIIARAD
Sequence of mouse α9α10 nAChR (B2RX82 25-447): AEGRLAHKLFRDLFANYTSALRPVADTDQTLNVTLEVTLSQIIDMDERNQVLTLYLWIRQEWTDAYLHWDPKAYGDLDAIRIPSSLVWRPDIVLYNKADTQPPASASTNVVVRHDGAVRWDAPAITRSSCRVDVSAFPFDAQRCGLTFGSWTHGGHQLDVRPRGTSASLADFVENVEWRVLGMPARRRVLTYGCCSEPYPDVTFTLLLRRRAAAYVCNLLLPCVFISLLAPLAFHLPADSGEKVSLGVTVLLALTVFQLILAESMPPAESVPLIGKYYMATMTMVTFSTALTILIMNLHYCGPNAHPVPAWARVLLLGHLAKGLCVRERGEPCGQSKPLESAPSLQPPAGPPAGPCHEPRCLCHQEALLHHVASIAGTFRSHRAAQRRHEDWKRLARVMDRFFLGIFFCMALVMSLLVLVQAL
Experimental: X. laevis oocytes were injected with 25 ng of each cRNA encoding α9 and α10 subunits as previously described (Cartier et al., [1996]) and incubated for 48 h at 17°C in ND96 prior to use. Two-electrode voltage clamp electrophysiology was conducted to assess for functional expression of α9α10 nAChRs as previously described (Azam et al., [2008]). The oocyte membranes were clamped at a holding potential of −70 mV and stimulated with 1 s pulses of 1 mM ACh once every 60 s. After a steady-state response baseline was observed, the oocytes were then stimulated with ascending concentrations of ACh, choline, or nicotine. Each oocyte was stimulated first with ACh followed by choline then nicotine. The maximal response value for activation by ACh was determined using the Hill equation: Y = Bottom + (Top-Bottom)/(1+10^∧((LogEC50−X)*Hill slope)). The responses to all concentrations of ACh, choline, and nicotine were then normalized to this value and calculated as a % response.

CBA/CaJ mice = details: mouse, in vivo
α9α10 nAChR = details: MLA and α-bungarotoxin; no reference given; cited from earlier work

CN1CCC[C@H]1c1cccnc1 [nicotine]
Agonist action on monocyte α9* nAChRs (α9* nAChRs of monocytes): act as an agonist of α9^* nAChRs in immune cell monocytes
evoked current (% response relative to ACh maximum) (mouse α9α10 nAChR; n = 4, nicotine): 0.4 ± 0.2%
agonist behaviour (words) (mouse α9α10 nAChR): not by nicotine; also recorded: did not activate Xenopus oocyte-expressed mouse α9α10 nAChRs
agonist behaviour (words) (mouse α9α10 nAChR; listed as Nic): failed to evoke currents at concentration from 100 nM to 10 mM
agonist behaviour (words) (mouse α9α10 nAChR; listed as Nicotine): failed to evoke currents in all oocytes tested

C[N+](C)(C)CCO [choline]
Hill slope for activation (mouse α9α10 nAChR): 1.3 (0.5–2.1)
agonist behaviour (words) (mouse α9α10 nAChR): activated
agonist behaviour (words) (mouse α9α10 nAChR; listed as Choline): behaved as a partial agonist relative to ACh; also recorded: potently activated α9α10 nAChRs
EC50 (mouse α9α10 nAChR): 601 µM

CC(=O)OCC[N+](C)(C)C [ACh, acetylcholine]
ACh-evoked current amplitude (mouse α9α10 nAChR; 1 mM ACh): > 10 μA
Hill slope for activation (mouse α9α10 nAChR): 1.1 (0.8–1.4)
agonist behaviour (words) (mouse α9α10 nAChR): activated; also recorded: induced robust currents
EC50 (mouse α9α10 nAChR): 30.1 µM

O=C1[O][Pt]2([NH][C@@H]3CCCC[C@H]3[NH]2)[O]C1=O [oxaliplatin]
Oxaliplatin-induced cold allodynia (CBA/CaJ mice): produced cold allodynia, an effect that significantly differed from control beginning by week three and continuing for 2 weeks post-oxaliplatin treatment

CCN1C[C@]2(COC(=O)c3ccccc3N3C(=O)C[C@H](C)C3=O)CC[C@H](OC)[C@@]34[C@@H]5C[C@H]6[C@H](OC)[C@@H]5[C@](O)(C[C@@H]6OC)[C@@](O)([C@@H](OC)[C@H]23)[C@@H]14 [methyllycaconitine (MLA), methyllycaconitine]
α9α10 nAChR block (α9α10 nAChR): potently block α9α10 nAChRs
